Reference: patent publication US5580897A, “1,2-dithiins having antifungal activity” (Shaman Pharmaceuticals, Inc., priority 1995, dated 1996)
Values after ≈ are worked out from the molar mass of the structure shown.

Legend:
[1] = tested on: Candida albicans ATCC10259 (CA); assay: in vitro antifungal activity, minimum inhibitory concentration; type: cell-based
Experimental: (§1) The antifungal activities of representative 1,2-dithiin compounds listed below were determined in vitro using three fungal cultures: Candida albicans ATCC10259 (CA), Cryptococcus neoformans ATCC36556 (CN), and Aspergillus fumigatus ATCC13073 (AF).
(§2) The method used to determine in vitro antifungal activity is discussed in McGinnis, M. R., Laboratory Handbook of Medical Mycology, Academic Press, New York, London, p. 661 (1980); and Drouget, E.; Dupont, B.; Improvist, L.; Vivian, M. A.; and Tortorano, A. M.; "Disc Agar Diffusion and Microplate Automatized Techniques for In Vitro Evaluation of Antifungal Agents on Yeast and Sporulated Pathogenic Fungi" in In Vitro and In Vivo Evaluation of Antifungal Agents, Eds. lwata, K. and Vanden Bossche, H., Elsevier Science Publishers, New York, Oxford, p. 303 (1986).

[2] = tested on: Aspergillus fumigatus ATCC13073 (AF); assay: as above; type: cell-based
Experimental: as §1, §2

[3] = tested on: Cryptococcus neoformans ATCC36556 (CN); assay: as above; type: cell-based
Experimental: as §1, §2

[4] = tested on: Cryptococcus neoformans MI-106 (MI-106); assay: as above; type: cell-based; details: Cryptococcus neoformans MI-106, in vitro
Source text: (§3) Additionally, two 1,2-dithiin compounds, 3-(hydroxymethyl)-6-[N-hydroxyiminomethyl]-1,2-dithiin and 3,6-[bis(N-hydroxyiminomethyl)]-1,2-dithiin, were chosen as compounds representative of the 1,2-dithiin class to be tested against a variety of fungi: Candida albicans A-26 (A-26), Candida albicans B311 (B311), Candida krusei GK7831 (CK), Candida parapsilosis CP18 (CP), Candida tropicalis 1525 (CT), Cryptococcus neoformans MI-106 (MI-106), Aspergillus fumigatus WM-1 (WM-1) and Trichophyton rubrum ATCC18762 (TR). The minimum inhibitory concentration (MIC) for 3-(hydroxymethyl)-6-[N-hydroxyiminomethyl]-1,2-dithiin and 3,6-[bis(N-hydroxyiminomethyl)]-1,2-dithiin are shown below in Table II.
as §2

[5] = tested on: Candida krusei GK7831 (CK); assay: as above; type: cell-based; details: Pichia kudriavzevii
Source text: as §3, §2

[6] = tested on: Candida albicans A-26 (A-26); assay: as above; type: cell-based; details: Candida albicans A-26, in vitro
Source text: as §3, §2

[7] = tested on: Aspergillus fumigatus WM-1 (WM-1); assay: as above; type: cell-based; details: Aspergillus fumigatus WM-1, in vitro
Source text: as §3, §2

[8] = tested on: Candida tropicalis 1525 (CT); assay: as above; type: cell-based; details: Candida tropicalis 1525, in vitro
Source text: as §3, §2

[9] = tested on: Candida albicans B311 (B311); assay: as above; type: cell-based
Source text: as §3, §2

[10] = tested on: Candida parapsilosis CP18 (CP); assay: as above; type: cell-based; details: Lodderomyces parapsilosis
Source text: as §3, §2

[11] = tested on: Trichophyton rubrum ATCC18762 (TR); assay: as above; type: cell-based
Source text: as §3, §2

virus = details: literature; cited from earlier work
[12] = literature; cited from earlier work
fungi = details: natural products, literature; cited from earlier work

MIC [1] | MIC [2] | MIC [3] | SMILES | also measured
0.8 µg/mL (≈ 3.47 µM) | 6.3 µg/mL (≈ 27.4 µM) | 1.6 µg/mL (≈ 6.95 µM) | CON=CC1=CC=C(C=NOC)SS1 [3,6-Bis[N-methoxyiminomethyl]-1,2-dithiin] | 
0.1 µg/mL (≈ 0.494 µM) | 0.4 µg/mL (≈ 1.98 µM) | 0.8 µg/mL (≈ 3.96 µM) | ON=CC1=CC=C(C=NO)SS1 [3,6-[Bis(N-hydroxyiminomethyl)]-1,2-dithiin] | MIC [4]: 1.6 µg/mL (≈ 7.91 µM); MIC [5]: 6.3 µg/mL (≈ 31.1 µM); MIC [6]: 0.2 µg/mL (≈ 0.989 µM); MIC [7]: 0.2 µg/mL (≈ 0.989 µM); MIC [8]: 1.6 µg/mL (≈ 7.91 µM); MIC [9]: 0.1 µg/mL (≈ 0.494 µM); MIC [10]: 0.2 µg/mL (≈ 0.989 µM); MIC [11]: 0.05 µg/mL (≈ 0.247 µM)
1.6 µg/mL (≈ 9.29 µM) | 6.3 µg/mL (≈ 36.6 µM) | 1.6 µg/mL (≈ 9.29 µM) | O=CC1=CC=C(C=O)SS1 [3-6-Bis(formyl)-1,2-dithiin, 3,6-Bis(formyl)-1,2-dithiin] | 
12.5 µg/mL (≈ 63.4 µM) | 6.3 µg/mL (≈ 31.9 µM) | 3.1 µg/mL (≈ 15.7 µM) | N#C/C=C/C1=CC=C(CO)SS1 [3-(Hydroxymethyl)-6-[2-cyanoethene-1-yl]-1,2-dithiin] | 
1.6 µg/mL (≈ 8.45 µM) | 1.6 µg/mL (≈ 8.45 µM) | 1.6 µg/mL (≈ 8.45 µM) | OCC1=CC=C(C=NO)SS1 [3-(Hydroxymethyl)-6-[N-hydroxyiminomethyl]-1,2-dithiin] | MIC [4]: 1.6 µg/mL (≈ 8.45 µM); MIC [5]: 6.3 µg/mL (≈ 33.3 µM); MIC [6]: 1.6 µg/mL (≈ 8.45 µM); MIC [7]: 1.6 µg/mL (≈ 8.45 µM); MIC [8]: 6.3 µg/mL (≈ 33.3 µM); MIC [9]: 1.6 µg/mL (≈ 8.45 µM); MIC [10]: 3.1 µg/mL (≈ 16.4 µM); MIC [11]: 0.8 µg/mL (≈ 4.23 µM)
6.3 µg/mL (≈ 31 µM) | 6.3 µg/mL (≈ 31 µM) | 6.3 µg/mL (≈ 31 µM) | CON=CC1=CC=C(CO)SS1 [3-(Hydroxymethyl)-6-[N-methoxyiminomethyl]-1,2-dithiin] | 
12.5 µg/mL (≈ 51.2 µM) | 25 µg/mL (≈ 102 µM) | 6.3 µg/mL (≈ 25.8 µM) | CCOC(=O)/C=C/C1=CC=C(CO)SS1 [3-(Hydroxymethyl)-6-[ethyl propenoate-3-yl]-1,2-dithiin] | 
6.3 µg/mL (≈ 27.4 µM) | 6.3 µg/mL (≈ 27.4 µM) | 6.3 µg/mL (≈ 27.4 µM) | COC(=O)/C=C/C1=CC=C(CO)SS1 [3-(Hydroxymethyl)-6-[methyl propenoate-3-yl]-1,2-dithiin] | 
0.8 µg/mL (≈ 4.67 µM) | 0.8 µg/mL (≈ 4.67 µM) | 0.8 µg/mL (≈ 4.67 µM) | N#CC1=CC=C(CO)SS1 [3-(Hydroxymethyl)-6-cyano-1,2-dithiin] | 
12.5 µg/mL (≈ 71.7 µM) | 25 µg/mL (≈ 143 µM) | 6.3 µg/mL (≈ 36.2 µM) | O=CC1=CC=C(CO)SS1 [3-(Hydroxymethyl)-6-formyl-1,2-dithiin, 3-(Hydroxymethyl)-6-aldehydyl-1,2-dithiin] | 
 |  |  | C=CC#CC#CC1=CC=C(C#CC)SS1 [Thiarubrine A] | antiviral activity (virus): possess both antifungal and antiviral activity; cytotoxicity [12]: cytotoxic; antifungal activity (fungi): possess both antifungal and antiviral activity
